ChEMBL document CHEMBL4483862, “Open-source discovery of chemical leads for next-generation chemoprotective antimalarials” (2018)

Test system: Plasmodium berghei
Experiment: Luciferase/luciferin-expressing antifolate-resistant parasites were used to infect a culture of HepG2 cells that were pre-incubated with compounds. Infected hepatocytes emit light due to the luciferase reaction. Assay results are presented as the percent inhibition of light emission compared to control. […]
Format: functional
Conditions: sporozoite; for IC90: read-out: LUCIFERASE INFECTION ASSAY - IC90
[1] = read-out: LUCIFERASE INFECTION ASSAY - IC50

Compound	IC90 [µM]	IC50 [1] [µM]	also measured
Cc1cc(C)c(NC(=O)CNC(=O)c2ccc(-c3ccccc3)cc2)c(C)c1	> 10		IC50 (PBLUC_HILL_SLOPE 11.6, PBLUC_R_SQUARED 0.0183, read-out: LUCIFERASE INFECTION ASSAY - IC50): > 10 µM
Cc1csc2sc(/C=N/Cc3cccs3)c(C)c12	> 11.3	> 11.3	
Oc1ccc(CN2CCN(c3ccccn3)CC2)c2cccnc12	> 10		IC50 (HEPG2TOX_HILL_SLOPE 1.46, HEPG2TOX_R_SQUARED 0.941, PBLUC_HILL_SLOPE 3.25, PBLUC_R_SQUARED 0.21, read-out: LUCIFERASE INFECTION ASSAY - IC50): 7.97 µM
COC(=O)c1cc(OC)c(OC)cc1NC(=O)c1ccc(-c2cccc(Br)c2)nc1C	> 10	> 10	
OCc1ccc(-c2cnc3ccc(-c4cccc(Cl)c4)nn23)cc1	3.31		IC50 (FFLUC_HILL_SLOPE 12.3, FFLUC_R_SQUARED 0.916, HEPG2TOX_HILL_SLOPE 9.11, HEPG2TOX_R_SQUARED 0.904, PBLUC_HILL_SLOPE 1.55, PBLUC_R_SQUARED 0.705, read-out: LUCIFERASE INFECTION ASSAY - IC50): 0.798 µM
Cc1cc(OCCCC(=O)NC2CCN(Cc3ccccc3)CC2)ccc1Cl	> 10		IC50 (PBLUC_HILL_SLOPE 3.22, PBLUC_R_SQUARED 0.455, read-out: LUCIFERASE INFECTION ASSAY - IC50): 5.35 µM
Cc1nn2c(NCCN(C)C)cc(C(C)C)nc2c1-c1ccccc1	> 9.78	> 9.78	
O=C(c1cnc(Nc2cccc(C(F)(F)F)c2)[nH]1)c1ccccc1F	> 9.45		IC50 (PBLUC_HILL_SLOPE 15.7, PBLUC_R_SQUARED 0.709, read-out: LUCIFERASE INFECTION ASSAY - IC50): 9.07 µM
Cc1cc(O)c(/C=N/Nc2ncc(C(F)(F)F)cc2Cl)c(=O)o1	> 9.49		IC50 (HEPG2TOX_HILL_SLOPE 2.38, HEPG2TOX_R_SQUARED 0.982, PBLUC_HILL_SLOPE 7.99, PBLUC_R_SQUARED 0.344, read-out: LUCIFERASE INFECTION ASSAY - IC50): 7.73 µM
CCN(CC)S(=O)(=O)c1ccc(N/N=C/c2c(-c3ccccc3)[nH]c3ccccc23)nc1	> 10		IC50 (PBLUC_HILL_SLOPE 2.64, PBLUC_R_SQUARED 0.392, read-out: LUCIFERASE INFECTION ASSAY - IC50): 4.46 µM
COc1ccc2cc(C(=O)NNC(=O)c3ccccn3)c(C)nc2c1	> 10	8.4	
CCc1[nH]c(=O)c(C#N)c(-c2ccccc2)c1C(=O)OC	> 11.7	> 11.7	
O=C(Sc1ccc(Cl)cc1Cl)c1cccnc1SCCS(=O)(=O)c1ccc(C(F)(F)F)cn1	> 5.96		IC50 (FFLUC_HILL_SLOPE 1.65, FFLUC_R_SQUARED 0.565, PBLUC_HILL_SLOPE 0.597, PBLUC_R_SQUARED 0.0951, read-out: LUCIFERASE INFECTION ASSAY - IC50): > 5.96 µM
O=C(c1cccs1)N1CCN(c2cc(C(F)(F)F)nc3ccccc23)CC1	3.33		IC50 (PBLUC_HILL_SLOPE 13.8, PBLUC_R_SQUARED 0.566, read-out: LUCIFERASE INFECTION ASSAY - IC50): 2.84 µM
Cc1nn(CC(=O)Nc2cc(C(F)(F)F)ccc2Oc2ccc(Br)cc2)c(=O)c(C#N)c1C	> 10	> 10	
COc1cc(C(=O)OCc2c(C)cc(C(C)(C)C)cc2C)cc(OC)c1OC	> 10	> 10	
N#CC(C(=O)COC(=O)COc1cc(Cl)c(Cl)cc1Cl)=C1Nc2ccccc2N1	> 10	> 10	
CCOc1ccc(-c2n[nH]c3c2C(c2ccccc2)N(c2ccccc2)C3=O)cc1 (stereo not given)	> 8.34		IC50 (FFLUC_HILL_SLOPE 11.9, FFLUC_R_SQUARED 0.867, HEPG2TOX_HILL_SLOPE 2.22, HEPG2TOX_R_SQUARED 0.878, read-out: LUCIFERASE INFECTION ASSAY - IC50): > 8.34 µM
CC(C)CCOc1ccc(C(C2C(=O)CC(C)(C)CC2=O)C2C(=O)CC(C)(C)CC2=O)cc1	> 10		IC50 (FFLUC_HILL_SLOPE 1.63, FFLUC_R_SQUARED 0.537, read-out: LUCIFERASE INFECTION ASSAY - IC50): > 10 µM
N#Cc1ccsc1NC(=O)c1ccc(Cl)c([N+](=O)[O-])c1	> 10	> 10	
O=C(Nc1ccc(-c2nccs2)cc1)c1occc1COc1ccccc1	> 10	> 10	
OCC1CCCN(c2nn3cc(-c4ccccc4)nc3s2)C1 (stereo not given)	0.00758		

Compound	IC90 [µM]	IC50 [1] [µM]	also measured
N#Cc1ccc(-c2cnc3ccc(NCc4ccc(S(N)(=O)=O)cc4)nn23)cc1	3.66		IC50 (HEPG2TOX_HILL_SLOPE 8.58, HEPG2TOX_R_SQUARED 0.551, PBLUC_HILL_SLOPE 11.6, PBLUC_R_SQUARED 0.236, read-out: LUCIFERASE INFECTION ASSAY - IC50): 3.03 µM
Cc1nc2ncnn2c(Nc2cccc(Cl)c2C)c1Cl	> 10.7		IC50 (HEPG2TOX_HILL_SLOPE 3, HEPG2TOX_R_SQUARED 0.869, PBLUC_HILL_SLOPE 3.03, PBLUC_R_SQUARED 0.114, read-out: LUCIFERASE INFECTION ASSAY - IC50): 5.55 µM
O=C(Nc1ccc2c(c1)OCO2)C1CCN(C(C(=O)c2c[nH]c3ccccc23)c2ccccc2)CC1 (stereo not given)	> 10		IC50 (FFLUC_HILL_SLOPE 60.7, FFLUC_R_SQUARED 0.292, PBLUC_HILL_SLOPE 4.02, PBLUC_R_SQUARED 0.0454, read-out: LUCIFERASE INFECTION ASSAY - IC50): 7.8 µM
C=S(=O)(NC(=O)CSc1nnc(C(F)(F)F)n1C)c1ccc(Cl)cc1 (stereo not given)	> 7.99		IC50 (FFLUC_HILL_SLOPE 23.5, FFLUC_R_SQUARED 0.129, read-out: LUCIFERASE INFECTION ASSAY - IC50): > 7.99 µM
COc1cccc(C(=O)c2c(-c3ccco3)c3c4n(c(-c5ccc(Cl)cc5)cn24)CCCC3)c1	> 10		IC50 (PBLUC_HILL_SLOPE 14.1, PBLUC_R_SQUARED 0.641, read-out: LUCIFERASE INFECTION ASSAY - IC50): 9.18 µM
CO[C@H]1[C@H](C)O[C@@H](O[C@H]2CC[C@]3(C)C4C[C@@H](O)[C@]5(C)[C@@H](C6=CC(=O)OC6)[C@@H](OC(C)=O)C[C@]5(O)C4CC[C@@H]3C2)C[C@@H]1O (stereo not given in full)	0.626		IC50 (HEPG2TOX_HILL_SLOPE 2.15, HEPG2TOX_R_SQUARED 0.965, PBLUC_HILL_SLOPE 1.44, PBLUC_R_SQUARED 0.806, read-out: LUCIFERASE INFECTION ASSAY - IC50): 0.136 µM
COc1ccc(-c2nc3cnc(Nc4cccc(OC(F)(F)F)c4)cc3n2C)cc1OC	> 10		IC50 (PBLUC_HILL_SLOPE 2.08, PBLUC_R_SQUARED 0.244, read-out: LUCIFERASE INFECTION ASSAY - IC50): > 10 µM
NS(=O)(=O)c1ccc(Nc2nc(-c3ccc(Cl)s3)cs2)cc1	> 10		IC50 (FFLUC_HILL_SLOPE 0.347, FFLUC_R_SQUARED 0.604, read-out: LUCIFERASE INFECTION ASSAY - IC50): > 10 µM
O=C(NNC(=O)c1cccn1-c1ccc(F)cc1)Nc1ccc(Cl)c(Cl)c1	7.62		IC50 (PBLUC_HILL_SLOPE 3.35, PBLUC_R_SQUARED 0.178, read-out: LUCIFERASE INFECTION ASSAY - IC50): 3.96 µM
CCc1ccc(-n2nnnc2C/C=N/Nc2ccc(F)cc2)cc1	> 10.2	> 10.2	
COc1cc(Nc2nccn3c(-c4ccc(OC(F)(F)F)cc4)cnc23)cc(OC)c1OC	4.53		IC50 (HEPG2TOX_HILL_SLOPE 16.8, HEPG2TOX_R_SQUARED 0.492, PBLUC_HILL_SLOPE 4.79, PBLUC_R_SQUARED 0.767, read-out: LUCIFERASE INFECTION ASSAY - IC50): 2.86 µM
O=C(CCSc1nc(NC2CC2)c2ccccc2n1)N1CCc2ccccc21	7.86	3.46	
CCc1ccc(CN2CCc3c(c(C(=O)N4CCCC(O)C4)nn3Cc3cccc(OC)c3)C2)cc1 (stereo not given)	> 6.75		IC50 (PBLUC_HILL_SLOPE 17.4, PBLUC_R_SQUARED 0.568, read-out: LUCIFERASE INFECTION ASSAY - IC50): 6.43 µM
O=S(=O)(Nc1cccc2cccnc12)c1cc(Cl)c(Cl)cc1Cl	> 8.51		IC50 (PBLUC_HILL_SLOPE 9.06, PBLUC_R_SQUARED 0.472, read-out: LUCIFERASE INFECTION ASSAY - IC50): > 8.51 µM
Cn1c(NCC2CCCO2)nc2cnc(-c3cccc(Oc4ccccc4)c3)cc21 (stereo not given)	> 10	> 10	
CCOC(=O)c1c(C)[nH]c(/C(C)=N/Nc2nc3ccccc3[nH]2)c1C	> 10		IC50 (HEPG2TOX_HILL_SLOPE 6.05, HEPG2TOX_R_SQUARED 0.279, PBLUC_HILL_SLOPE 4.56, PBLUC_R_SQUARED 0.397, read-out: LUCIFERASE INFECTION ASSAY - IC50): 8.41 µM
CC(C)CCNC(=O)C(=Cc1ccc(Oc2ccc(C(C)(C)C)cc2)c([N+](=O)[O-])c1)C(=O)NCCC(C)C	> 10		IC50 (FFLUC_HILL_SLOPE 15.8, FFLUC_R_SQUARED 0.198, HEPG2TOX_HILL_SLOPE 15.2, 3.81, HEPG2TOX_R_SQUARED 0.607, 0.996, PBLUC_HILL_SLOPE 2.43, PBLUC_R_SQUARED 0.694, read-out: LUCIFERASE INFECTION ASSAY - IC50): 4.43 µM
OC(CNCC1COc2ccccc2C1)COc1ccc(Cl)cc1Cl (stereo not given)	> 10	> 10	
c1ccc2c(Nc3nc(C4CC4)cs3)ncnc2c1	> 10	> 10	
Cc1ccc(-c2noc(CCCN3CCN(c4cnn(-c5ccccc5)c(=O)c4Cl)CC3)n2)cc1	5.31		IC50 (HEPG2TOX_HILL_SLOPE 2.5, HEPG2TOX_R_SQUARED 0.985, PBLUC_HILL_SLOPE 2.59, PBLUC_R_SQUARED 0.752, read-out: LUCIFERASE INFECTION ASSAY - IC50): 2.28 µM
COc1ccc(C(CNC(=O)c2cc3cc(Br)ccc3[nH]2)N2CCCC2)cc1 (stereo not given)	> 10		IC50 (PBLUC_HILL_SLOPE 3.58, PBLUC_R_SQUARED 0.137, read-out: LUCIFERASE INFECTION ASSAY - IC50): > 10 µM
